Results taken from ChEMBL document CHEMBL1201862, “PubChem BioAssay data set” (2004).
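Growth conditions: 96-well plates. Treatment: test compound, 48 hours, 5 concentrations. Analysis: linear interpolation between bracketing concentrations; unreached endpoints set to highest concentration. Abbreviation: GI50, concentration required for 50% inhibition of growth.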 Calls of active or inactive are those of the source. No stated cut-off is given here; in the data, active = GI50 up to about 1.1 µM and inactive = higher.

Tests used:
Assay in all cases: growth of human tumour cells (NCI), 48 h
UACC-62 = tested on: UACC-62
SK-MEL-28 = tested on: SK-MEL-28
KM12 = tested on: KM12
SW-620 = tested on: SW-620
A549 = tested on: A549
NCI-H23 = tested on: NCI-H23
HT-29 = tested on: HT-29
TK-10 = tested on: TK-10
SK-MEL-5 = tested on: SK-MEL-5
LOX IMVI = tested on: LOX IMVI
SF-295 = tested on: SF-295
EKVX = tested on: EKVX
NCI-H522 = tested on: NCI-H522
ACHN = tested on: ACHN
786-0 = tested on: 786-0
NCI-H460 = tested on: NCI-H460
RXF 393 = tested on: RXF 393

Measured: GI50

O=C(O)c1oc2cccc3c2c1CCC3
inactive: UACC-62 41.7 µM | SK-MEL-28 > 100 µM | KM12 > 100 µM | SW-620 > 100 µM | A549 > 100 µM | NCI-H23 > 100 µM | HT-29 > 100 µM | TK-10 > 100 µM | SK-MEL-5 > 100 µM | LOX IMVI > 100 µM | SF-295 > 100 µM | EKVX > 100 µM | NCI-H522 > 100 µM | ACHN > 100 µM | 786-0 > 100 µM | NCI-H460 > 100 µM | RXF 393 > 100 µM

OC1=CN=C(c2ccccc2)Oc2ccccc21
inactive: UACC-62 > 100 µM | SK-MEL-28 > 100 µM | KM12 50.9 µM | SW-620 > 100 µM | A549 > 100 µM | NCI-H23 > 100 µM | HT-29 > 100 µM | TK-10 > 100 µM | SK-MEL-5 > 100 µM | LOX IMVI > 100 µM | SF-295 32 µM | EKVX > 100 µM | ACHN > 100 µM | 786-0 46.7 µM | NCI-H460 > 100 µM | RXF 393 > 100 µM

Cc1cc(N(CCC#N)S(=O)(=O)c2ccccc2)ccc1/C=C1\N=C(c2ccc(Cl)cc2)OC1=O
inactive: UACC-62 > 100 µM | SK-MEL-28 > 100 µM | KM12 > 100 µM | SW-620 > 100 µM | A549 > 100 µM | NCI-H23 > 100 µM | HT-29 > 100 µM | SK-MEL-5 > 100 µM | LOX IMVI > 100 µM | SF-295 > 100 µM | EKVX > 100 µM | ACHN > 100 µM | 786-0 > 100 µM | NCI-H460 > 100 µM | RXF 393 > 100 µM

CN(O)C(=O)Cc1ccccc1
inactive: UACC-62 > 100 µM | SK-MEL-28 > 100 µM | KM12 > 100 µM | SW-620 > 100 µM | A549 > 100 µM | NCI-H23 > 100 µM | HT-29 > 100 µM | TK-10 > 100 µM | SK-MEL-5 > 100 µM | LOX IMVI > 100 µM | SF-295 > 100 µM | NCI-H522 > 100 µM | ACHN > 100 µM | 786-0 > 100 µM | NCI-H460 > 100 µM | RXF 393 > 100 µM

CC(C)(C)c1ccc2c(c1)C(O)(c1ccccc1)c1cc(C(C)(C)C)ccc1C2(O)C(F)(F)F (stereo not drawn)
inactive: UACC-62 1.63 µM | SK-MEL-28 2.09 µM | KM12 1.93 µM | SW-620 1.88 µM | A549 1.88 µM | NCI-H23 1.81 µM | HT-29 1.57 µM | TK-10 3.98 µM | LOX IMVI 1.82 µM | SF-295 1.43 µM | EKVX 3.03 µM | NCI-H522 1.64 µM | ACHN 2.14 µM | 786-0 1.88 µM | NCI-H460 1.61 µM | RXF 393 1.82 µM

COc1ccc2c(c1)N1CCc3cc(OC)c(OC)cc3C1C2 (stereo not drawn)
inactive: UACC-62 23.6 µM | SK-MEL-28 89.1 µM | KM12 89.1 µM | SW-620 > 100 µM | A549 47.8 µM | NCI-H23 50.1 µM | HT-29 70.3 µM | TK-10 > 100 µM | LOX IMVI 98.6 µM | SF-295 88.7 µM | EKVX > 100 µM | NCI-H522 23.7 µM | ACHN 53 µM | 786-0 54.6 µM | NCI-H460 52.4 µM | RXF 393 65 µM

O=C(CC1=Nc2nnc(CCCCCCCc3nnc4n3C(=O)C(CC(=O)c3ccccc3)=N4)n2C1=O)c1ccccc1
inactive: UACC-62 > 100 µM | SK-MEL-28 > 100 µM | KM12 > 100 µM | SW-620 > 100 µM | A549 > 100 µM | NCI-H23 > 100 µM | HT-29 > 100 µM | TK-10 > 100 µM | SK-MEL-5 > 100 µM | LOX IMVI > 100 µM | SF-295 > 100 µM | EKVX > 100 µM | NCI-H522 > 100 µM | ACHN > 100 µM | 786-0 > 100 µM | NCI-H460 > 100 µM | RXF 393 > 100 µM

O=[N+]([O-])C=C(c1ccc(Cl)cc1)c1ccc(Cl)cc1
inactive: SK-MEL-28 16.8 µM | KM12 14.6 µM | SW-620 16.2 µM | A549 19.7 µM | NCI-H23 9.68 µM | HT-29 18.9 µM | TK-10 19.4 µM | LOX IMVI 12.7 µM | SF-295 18.5 µM | EKVX 17.5 µM | NCI-H522 14.4 µM | ACHN 16.7 µM | 786-0 16.5 µM | NCI-H460 20.3 µM | RXF 393 18.7 µM

O=c1[nH]c(=O)n(C2CC(O)C(CO)O2)cc1C#Cc1ccc(F)cc1 (stereo not drawn)
inactive: UACC-62 > 100 µM | SK-MEL-28 > 100 µM | KM12 > 100 µM | SW-620 > 100 µM | A549 > 100 µM | NCI-H23 > 100 µM | HT-29 > 100 µM | SK-MEL-5 > 100 µM | LOX IMVI > 100 µM | SF-295 > 100 µM | EKVX > 100 µM | NCI-H522 > 100 µM | ACHN > 100 µM | 786-0 > 100 µM | NCI-H460 > 100 µM

Cc1ccc(C)c(NC(=O)CCC(=O)CC(=O)C(C)(C)C)c1
inactive: UACC-62 > 100 µM | SK-MEL-28 > 100 µM | KM12 > 100 µM | SW-620 > 100 µM | A549 > 100 µM | NCI-H23 > 100 µM | HT-29 > 100 µM | TK-10 > 100 µM | SK-MEL-5 > 100 µM | LOX IMVI > 100 µM | EKVX > 100 µM | NCI-H522 > 100 µM | ACHN > 100 µM | 786-0 > 100 µM | NCI-H460 > 100 µM | RXF 393 > 100 µM

O=C1[C@@H]2C(c3ccncc3)=NO[C@@H]2C(=O)N1c1ccc(Cc2ccc(N3C(=O)[C@H]4C(c5ccncc5)=NO[C@H]4C3=O)cc2)cc1
inactive: UACC-62 > 100 µM | SK-MEL-28 > 100 µM | KM12 > 100 µM | SW-620 > 100 µM | A549 > 100 µM | NCI-H23 > 100 µM | HT-29 > 100 µM | TK-10 > 100 µM | SK-MEL-5 > 100 µM | LOX IMVI > 100 µM | SF-295 > 100 µM | EKVX > 100 µM | ACHN > 100 µM | 786-0 > 100 µM | NCI-H460 > 100 µM | RXF 393 > 100 µM

O=C(Nc1ccn(CCI)c(=O)n1)c1ccccc1
inactive: UACC-62 > 100 µM | SK-MEL-28 > 100 µM | KM12 > 100 µM | SW-620 > 100 µM | A549 > 100 µM | HT-29 > 100 µM | TK-10 > 100 µM | SK-MEL-5 > 100 µM | LOX IMVI > 100 µM | SF-295 > 100 µM | EKVX > 100 µM | NCI-H522 > 100 µM | ACHN > 100 µM | 786-0 > 100 µM | NCI-H460 > 100 µM | RXF 393 > 100 µM

O=C1OC(c2ccccc2)=N/C1=C\c1ccc2ccccc2c1
inactive: UACC-62 > 100 µM | SK-MEL-28 > 100 µM | KM12 > 100 µM | SW-620 > 100 µM | A549 > 100 µM | NCI-H23 > 100 µM | HT-29 > 100 µM | TK-10 > 100 µM | SK-MEL-5 > 100 µM | LOX IMVI > 100 µM | EKVX > 100 µM | NCI-H522 > 100 µM | ACHN > 100 µM | 786-0 > 100 µM | NCI-H460 > 100 µM | RXF 393 > 100 µM

COC(=O)C(C(=O)C(=O)Nc1ccccc1OC)c1csc(-n2nc(-c3ccccc3)cc2-c2ccccc2)n1 (stereo not drawn)
inactive: UACC-62 > 100 µM | KM12 95.9 µM | SW-620 > 100 µM | A549 > 100 µM | NCI-H23 > 100 µM | HT-29 59.3 µM | TK-10 > 100 µM | LOX IMVI > 100 µM | EKVX 43.1 µM | NCI-H522 > 100 µM | ACHN > 100 µM | 786-0 > 100 µM | NCI-H460 > 100 µM | RXF 393 89.5 µM

CCOC(=O)c1nc(C)oc1C(F)(F)F
inactive: UACC-62 > 100 µM | SK-MEL-28 > 100 µM | KM12 > 100 µM | SW-620 > 100 µM | A549 > 100 µM | NCI-H23 > 100 µM | HT-29 > 100 µM | TK-10 > 100 µM | LOX IMVI > 100 µM | SF-295 > 100 µM | EKVX > 100 µM | NCI-H522 > 100 µM | ACHN > 100 µM | 786-0 > 100 µM | NCI-H460 > 100 µM | RXF 393 > 100 µM

COCOC1CCCC[C@@]1(OCCOCCO[C@@]1(c2ccccc2)CCCC[C@H]1OCOC)c1ccccc1 (stereo partly drawn)
inactive: UACC-62 > 100 µM | SK-MEL-28 > 100 µM | KM12 > 100 µM | SW-620 > 100 µM | A549 99.5 µM | NCI-H23 > 100 µM | HT-29 > 100 µM | TK-10 70.6 µM | LOX IMVI > 100 µM | SF-295 32.4 µM | EKVX 37.8 µM | NCI-H522 > 100 µM | ACHN 87.7 µM | 786-0 46.6 µM | NCI-H460 > 100 µM | RXF 393 23.1 µM

OC(CCl)CN1CC[N+]2(CC1)CC[N+]1(CCN(CC(O)CCl)CC1)CC2 (stereo not drawn) [PROSPIDIUM CHLORIDE]
inactive: SK-MEL-28 > 50 µM | KM12 > 50 µM | SW-620 > 50 µM | A549 > 50 µM | NCI-H23 > 50 µM | HT-29 > 50 µM | TK-10 > 50 µM | SK-MEL-5 > 50 µM | SF-295 > 50 µM | EKVX > 50 µM | NCI-H522 > 50 µM | ACHN > 50 µM | 786-0 > 50 µM | NCI-H460 > 50 µM | RXF 393 > 50 µM
